Converted amounts (≈) assume the structure as drawn. “And” between values parts separate entries of the source, which are not always exact repeats. Identical values can stand only once. Like-named read-outs stand apart in the source and are kept apart here.
Key:
[1] = tested on: TPA-induced ear oedema; assay: Anti-inflammatory activity after a single topical administration in TPA-induced ear oedema; type: in vivo, mouse; settings: for Inhibition vs TPA (%) / Ear oedema Mean / anti-inflammatory effect (in words): single topical application; for Inhibition vs TPA (%): T6 h; for Ear oedema Mean: ear thickness at T6 h; for anti-inflammatory effect compared to BPO 5% (in words): compared to BPO at 5%
Description: the aim is to evaluate the anti-inflammatory activity of the peroxides by measuring the thickness of mouse ear after TPA topical application. The anti-inflammatory activity is defined as a inhibition percentage of the TAP-induced ear oedema.
An oedema was induced by a single topical application of 20 μl of TPA dissolved in acetone at 0.01%.
Then a single topical application of tested compounds dissolved in TPA solution.
Ear thickness was measured at T6 h.
Results are expressed in percentages based on the inhibition on the oedema induced by the TPA application.
Benzoyl peroxide (BPo) was tested 2 times as a reference peroxide.

[2] = tested on: P. acnes CIP53.117; assay: microbe, parasite or virus in culture; type: cell-based, Propionibacterium acnes
[3] = compound 5% in TPA 0.01% solution
[4] = Cutibacterium acnes, CIP53, 72 h
[5] = compound 1% in TPA 0.01% solution
[6] = compound 2.5% in TPA 0.01% solution

Compound | Inhibition vs TPA (%) [1, 3] | Ear oedema Mean [1, 3] | MIC [2, 4] | anti-inflammatory effect (in words) ([1]; 1%, 2.5% and 5%) | anti-inflammatory effect compared to BPO 5% (in words) [1] | Inhibition vs TPA (%) [1, 5] | Ear oedema Mean [1, 5] | Inhibition vs TPA (%) [1, 6] | Ear oedema Mean [1, 6] | anti-inflammatory effect (in words) ([1]; at 5%) | MIC [2]
O=C(OOC(=O)c1ccccc1)c1ccccc1 [BPO, Benzoyl peroxide, reference compound] | 21.4% and 27.8% | 17.60 and 20.80 | – | – | – | – | – | – | – | – | –
CCOC(=O)Oc1ccccc1C(=O)OOC(=O)c1ccccc1 [Example 1, (2-(Ethoxycarbonyloxy)benzoyl)benzoyl peroxide] | 53.5% | 13.40 | 80 µg/mL (≈ 242 µM) | dose-dependent anti-inflammatory effect | significantly superior | 13.9% | 24.80 | 29.9% | 20.20 | – | –
CC(C)(C)OC(=O)Oc1ccccc1C(=O)OOC(=O)c1ccccc1 [Example 2, (2-(tert-Butoxycarbonyloxy)benzoyl)benzoyl peroxide] | – | – | 40 µg/mL (≈ 112 µM) | – | – | – | – | – | – | – | –
CCOC(=O)Oc1ccccc1C(=O)OOC(=O)c1ccccc1OC(=O)OCC [Example 3, Bis(2-(ethoxycarbonyloxy)benzoyl)peroxide] | 81.1% | 4.80 | 160 µg/mL (≈ 382 µM) | strong dose-dependent anti-inflammatory effect | – | 45.7% | 13.80 | 66.1% | 8.60 | – | –
CC(C)OC(=O)Oc1ccccc1C(=O)OOC(=O)c1ccccc1 [Example 5, (2-(Isopropoxycarbonyloxy)benzoyl)benzoyl peroxide] | 72.3% | 6.20 | 40 µg/mL (≈ 116 µM) | – | stronger anti-inflammatory effect | 8.9% | 20.40 | 44.6% | 12.40 | significant anti-inflammatory effect | –
CC(C)OC(=O)Oc1ccccc1C(=O)OOC(=O)c1ccccc1OC(=O)OC(C)C [Example 6, Bis(2-(isopropoxycarbonyloxy)benzoyl)peroxide] | 93.8% | 1.40 | 80 µg/mL (≈ 179 µM) | strong dose-dependent anti-inflammatory effect | stronger anti-inflammatory effect | 57.1% | 9.60 | 78.6% | 4.80 | – | –
CC(C)(C)C(=O)Oc1ccccc1C(=O)OOC(=O)c1ccccc1 [Example 9, (2-(tert-Butyryloxy)benzoyl)benzoyl peroxide] | – | – | – | – | – | – | – | – | – | – | 320 µg/mL (≈ 935 µM)
CC(C)C(=O)Oc1ccccc1C(=O)OOC(=O)c1ccccc1 [Example 10, (2-(Isobutyryloxy)benzoyl)benzoyl peroxide] | – | – | 80 µg/mL (≈ 244 µM) | – | – | – | – | – | – | – | –
O=C(CC12CC3CC(CC(C3)C1)C2)Oc1ccccc1C(=O)OOC(=O)c1ccccc1 [Example 12, [2-(2-(Adamantan-1-yl)acetoxy)benzoyl]benzoyl peroxide] | – | – | 320 µg/mL (≈ 736 µM) | – | – | – | – | – | – | – | –

From patent US9102607B2 (priority 2009, dated 2015)
